Experimental data from ChEMBL document CHEMBL6083286, “Discovery of ERD-12310A as an Exceptionally Potent and Orally Efficacious PROTAC Degrader of Estrogen Receptor α (ERα)” (J Med Chem, 2024).
The source made the active and inactive calls. The calls are words filed in the database; no cut-off is given here.

Key:
T47D = assay: PROTAC activity at CRBN/ ERalpha Y537S mutant in human T47D cells assessed as reduction in ERalpha protein level at 10 to 100 nM measured at 7 hrs by Western blot analysis; assay type: cell-based; design: scale not given: the % may be the effect or the level left; settings: dose 10-100 nM
[1] = target: T1, Protein cereblon/Estrogen receptor (Homo sapiens, UniProt P03372+Q96SW2); assay: PROTAC activity at CRBN/ERalpha in human MCF7 cells assessed as reduction in ERalpha protein level at 1 nM measured at 4 hrs by Western blot analysis; assay type: cell-based
[2] = Volume of distribution at steady state in dog at 3 mg/kg, po or 1 mg/kg, iv measured upto 24 hrs by LC-MS/MS analysis; assay type: ADME, organism-based, Canis lupus familiaris; settings: in vivo
[3] = Metabolic stability rat liver microsome assessed as half life; assay type: ADME; settings: microsomes
[4] = Drug concentration in SCID mouse plasma at 10 mg/kg, po administered once daily measured at 24 hrs by LC-MS/MS analysis; assay type: ADME, organism-based
Estrogen receptor = target: T2, Estrogen receptor (Homo sapiens, UniProt P03372); assay: Binding affinity to human ERalpha receptor assessed as inhibition constant
T2 sequence (P03372 whole entry): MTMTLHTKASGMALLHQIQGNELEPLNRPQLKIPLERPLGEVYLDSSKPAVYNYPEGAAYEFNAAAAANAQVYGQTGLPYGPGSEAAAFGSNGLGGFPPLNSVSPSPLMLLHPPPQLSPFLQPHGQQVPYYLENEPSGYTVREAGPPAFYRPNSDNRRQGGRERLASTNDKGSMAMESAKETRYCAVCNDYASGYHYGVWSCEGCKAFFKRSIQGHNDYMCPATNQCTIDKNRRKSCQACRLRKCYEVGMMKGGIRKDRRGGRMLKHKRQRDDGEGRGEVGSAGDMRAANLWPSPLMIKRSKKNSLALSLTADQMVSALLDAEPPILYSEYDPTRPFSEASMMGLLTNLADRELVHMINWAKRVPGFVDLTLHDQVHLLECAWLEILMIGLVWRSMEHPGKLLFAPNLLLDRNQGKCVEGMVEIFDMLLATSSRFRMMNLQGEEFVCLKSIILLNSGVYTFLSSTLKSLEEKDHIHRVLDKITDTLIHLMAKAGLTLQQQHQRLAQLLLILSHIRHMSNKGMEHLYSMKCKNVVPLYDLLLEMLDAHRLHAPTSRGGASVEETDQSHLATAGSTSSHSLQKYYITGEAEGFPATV

MCF7 [5] = assay: Antitumor activity against human MCF7 cells expressing ESR1 Y537S mutant xenografted in SCID mouse assessed as tumor growth inhibition at 10 mg/kg, po administered 5 days a week for 5 weeks; assay type: functional; settings: MCF7, 840 h, read-out: TGI
[6] = target: T1, Protein cereblon/Estrogen receptor; assay: PROTAC activity at CRBN/ERalpha in human MCF7 cells assessed as effect on GSPT1 level at 0.5 to 500 nM measured for 5 hrs by Western blot analysis; assay type: cell-based; settings: dose 0.5-500 nM
[7] = target: T1, Protein cereblon/Estrogen receptor; assay: In-vivo PROTAC activity at CRBN/ERalpha in SCID mouse xenografted with human MCF7 cells assessed as reduction in ERalpha level in tumor at 30 mg/kg, po administered daily for 3 days and measured after 24 hrs by Western blot analysis; assay type: functional, organism-based; design: scale not given: the % may be the effect or the level left; settings: time 96.0 hrs
[8] = Half life in dog at 3 mg/kg, po or 1 mg/kg, iv measured upto 24 hrs by LC-MS/MS analysis; assay type: ADME, organism-based, Canis lupus familiaris; settings: in vivo
[9] = target: T1, Protein cereblon/Estrogen receptor; assay: PROTAC activity at CRBN/ERalpha in human MCF7 cells assessed as reduction ER level at 100 nM measured for 5 hrs by Western blot analysis; assay type: cell-based
[10] = target: T1, Protein cereblon/Estrogen receptor; assay: PROTAC activity at CRBN/wild type ERalpha in human T47D cells assessed as reduction in ERalpha protein level at 10 to 100 nM measured at 7 hrs by Western blot analysis; assay type: cell-based; settings: dose 10-100 nM
[11] = Plasma protein binding in rat; assay type: ADME, cell-free
[12] = Metabolic stability human liver microsome assessed as half life; assay type: ADME; settings: microsomes
MCF7 [13] = assay: Antitumor activity against human MCF7 cells xenografted in SCID mouse assessed as tumor growth inhibition at 10 mg/kg, po administered for 41 to 76 days; assay type: functional; settings: time 41-76 day, read-out: TGI
[14] = Volume of distribution at steady state in rat at 3 mg/kg, po or 1 mg/kg, iv measured upto 24 hrs by LC-MS/MS analysis; assay type: ADME, organism-based; settings: in vivo

T1 sequence (Q96SW2 whole entry, looked up, one chain of several): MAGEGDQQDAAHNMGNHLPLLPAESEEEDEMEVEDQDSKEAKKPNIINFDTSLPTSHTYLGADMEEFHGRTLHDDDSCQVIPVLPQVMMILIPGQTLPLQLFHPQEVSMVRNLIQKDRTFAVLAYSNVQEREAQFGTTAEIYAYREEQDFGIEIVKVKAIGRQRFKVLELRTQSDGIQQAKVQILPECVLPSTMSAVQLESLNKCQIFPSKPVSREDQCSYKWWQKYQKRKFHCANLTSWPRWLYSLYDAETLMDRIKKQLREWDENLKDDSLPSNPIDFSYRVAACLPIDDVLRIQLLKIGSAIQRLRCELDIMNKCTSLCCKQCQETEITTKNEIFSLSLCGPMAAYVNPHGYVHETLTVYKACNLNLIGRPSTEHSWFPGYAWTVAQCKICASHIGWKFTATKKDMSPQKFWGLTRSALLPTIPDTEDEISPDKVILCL

O=C1CC[C@H](N2Cc3c(ccc4c3OCC43CCN(C[C@@H]4CCC5(CCN(c6ccc([C@@H]7c8ccc(O)cc8CC[C@@H]7c7ccccc7)cc6)CC5)OC4)CC3)C2=O)C(=O)N1
Activity (T47D): > 80% | Activity [1]: Active | Vdss [2]: 3.2 L/kg | t1/2 [3]: > 1 h | concentration at 24 h [4]: 7 ng/mL | Ki (Estrogen receptor): 0.95 nM | inhibition in vivo at 10 mg/kg (MCF7 [5]): 75% | Activity [6]: Minimal_effect | Activity [7]: 71% | t1/2 [8]: 23.2 h | Activity [9]: No effect | Activity [10]: Active | PPB [11]: 95.7% | t1/2 [12]: > 1 h | inhibition in vivo at 10 mg/kg (MCF7 [13]): 94% | Vdss [14]: 1.9 L/kg
